One series concerns Sprague-Dawley rats. The series can be described thus: Echocardiography in rat model of DOXO-induced cardiotoxicity. Particulars: DOXO-treated animals not receiving SH. The series is classed as in vivo. How it is done: For in vivo experiments, considering that a water intake for adult rat is about 30-40 ml/day, 1.25 gr of SH extract was diluted in 300 ml of water, achieving a daily dose of […] (extract/body weight).
Adult female Sprague-Dawley rats (250-300 g body weight) were injected with six intraperitoneal doses of DOXO (Sigma) delivered at regular intervals from Day 1 to Day 11 (cumulative dose=15 mg/kg). During the treatment, rats were given ad libitum access to water containing SH. Rats received a daily dose of about 0.5 mg/Kg of SH.
Echocardiographic assessment, animals were anaesthetized at the indicated time points with 2.0-2.5% isoflurane. Transthoracic echocardiography was performed using the Vevo 2100 high-resolution imaging system (VisualSonic) equipped with a 13-24-MHz linear transducer. Analyses were performed on Days 0 (baseline), 12, 19. Two-dimensional short-axis M-mode echocardiography was performed. All M-mode tracing measurements were averaged from a minimum of three cardiac cycles. Investigators were blinded to the animals' identity.

Method for beating human iPS-CM: Traces were recorded every 24 hours for 7 consecutive days from the beginning of the DOXO treatment (day 0-3 h).

With `COc1cccc2c1C(=O)c1c(O)c3c(c(O)c1C2=O)C[C@@](O)(C(=O)CO)C[C@@H]3O[C@H]1C[C@H](N)[C@H](O)[C@H](C)O1` [DOXO, Doxorubicin], in the series on Sprague-Dawley rats, the “left end systolic volume (LVESV)” value is on record as “increased over time” and the “left ventricular ejection fraction (LVEF)” value is listed as “significant decrease”. Moreover, the QT interval result in the series on beating human iPS-CM is “induces prolongation on QT interval”.
